This note sets out measurements from US9365522B2, “Pyrazole amide derivative” (AMGEN INC., priority 2015, dated 2016).

The assay concerns the target T1, ligand binding domain of human ROR gamma (Homo sapiens, UniProt P51449).
T1 construct: NM_001001523; expressed in transfected cells; host or cells: HEK293T
T1 sequence (P51449 247-497 isoform P51449-2): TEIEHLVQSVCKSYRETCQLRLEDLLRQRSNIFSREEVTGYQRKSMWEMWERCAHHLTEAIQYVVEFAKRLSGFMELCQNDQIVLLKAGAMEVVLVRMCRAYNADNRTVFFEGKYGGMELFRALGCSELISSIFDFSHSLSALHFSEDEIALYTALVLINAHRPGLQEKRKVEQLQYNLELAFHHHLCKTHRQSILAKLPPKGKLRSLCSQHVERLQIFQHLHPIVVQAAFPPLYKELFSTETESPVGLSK
In words: ROR gamma reporter gene assay (GAL4-RORγ LBD luciferase, Dual-Glo). Type of assay: cell-based. To be noted: HEK293T cells transfected with pM-ROR gamma, 8 concentrations 3.5 nM to 10.5 μM, 24 h incubation; read-out: result (pIC50, inhibition of RORγ transcriptional activity) (converted). In outline:
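Inhibition of RORγ-driven transcription was measured in HEK293T cells expressing a GAL4 fusion of the human RORγ LBD (aa 247-497), with renilla luciferase as internal control. Cells in 10% charcoal-stripped serum received compound (3.5 nM–10.5 μM) for 24 h.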
For orientation: Reporter assays use an easily measured gene product as a stand-in for the process of interest.

On to `CC(=O)N1CC(N(CC(=O)c2c(Cl)cncc2Cl)C(=O)c2cnn([C@H]3CC[C@H](C(=O)O)CC3)c2C(F)(F)F)C1` [Example 172, trans-4-(4-((1-acetylazetidin-3-yl)-(2-(3,5-dichloropyridin-4-yl)-2-oxoethyl)carbamoyl)-5-(trifluoromethyl)pyrazol-1-yl)cyclohexane-1-carboxylic acid], for which the IC50 is > 1e+07 pM.

For the molecule `CC(C)(C)C(=O)N1CC(N(CC(=O)c2c(Cl)cncc2Cl)C(=O)c2cnn([C@H]3CC[C@H](C(=O)O)CC3)c2C(F)(F)F)C1` [Example 173, trans-4-(4-((2-(3,5-dichloropyridin-4-yl)-2-oxoethyl)-(1-(2,2-dimethylpropanoyl)azetidin-3-yl)carbamoyl)-5-(trifluoromethyl)pyrazol-1-yl)cyclohexane-1-carboxylic acid], the IC50 was > 1e+07 pM.

Consider `O=C(CN(C(=O)c1cnn([C@H]2CC[C@H](C(=O)O)CC2)c1C(F)(F)F)C1CCCCC1)c1c(Cl)cncc1Cl` [Example 174, trans-4-(4-(cyclohexyl-(2-(3,5-dichloropyridin-4-yl)-2-oxoethyl)carbamoyl)-5-(trifluoromethyl)pyrazol-1-yl)cyclohexane-1-carboxylic acid], for which the IC50 was 661000 pM.

As for `O=C(CN(C(=O)c1cnn([C@H]2CC[C@H](C(=O)O)CC2)c1C(F)(F)F)C1CCC(F)(F)CC1)c1c(Cl)cncc1Cl` [Example 175, trans-4-(4-((2-(3,5-dichloropyridin-4-yl)-2-oxoethyl)-(4,4-difluorocyclohexyl)carbamoyl)-5-(trifluoromethyl)pyrazol-1-yl)cyclohexane-1-carboxylic acid], the IC50 is 603000 pM.

For the molecule `CC(C)(C)O[C@H]1C[C@H](N(CC(=O)c2c(Cl)cncc2Cl)C(=O)c2cnn([C@H]3CC[C@H](C(=O)O)CC3)c2C(F)(F)F)C1` [Example 176, trans-4-(4-((2-(3,5-dichloropyridin-4-yl)-2-oxoethyl)-(3-((2-methylpropan-2-yl)oxy)cyclobutyl)carbamoyl)-5-(trifluoromethyl)pyrazol-1-yl)cyclohexane-1-carboxylic acid], the IC50 is 2.57e+06 pM.

Take `O=C(CN(Cc1ccc(F)cc1)C(=O)c1cnn(C23CCC(C(=O)O)(CC2)C3)c1C(F)(F)F)c1c(Cl)cncc1Cl` [Example 177, 4-(4-((2-(3,5-dichloropyridin-4-yl)-2-oxoethyl)-((4-fluorophenyl)methyl)carbamoyl)-5-(trifluoromethyl)pyrazol-1-yl)bicyclo[2.2.1]heptane-1-carboxylic acid]: the IC50 was 141000 pM.

In the case of `C[C@]1(C(=O)O)CC[C@H](n2ncc(C(=O)N(CC(=O)c3c(Cl)cncc3Cl)Cc3cc(F)cc(F)c3)c2C(F)F)CC1` [Example 178, trans-4-(4-((2-(3,5-dichloropyridin-4-yl)-2-oxoethyl)-((3,5-difluorophenyl)methyl)carbamoyl)-5-(difluoromethyl)pyrazol-1-yl)-1-methylcyclohexane-1-carboxylic acid], the IC50 is 4.37e+06 pM.

In the case of `O=C(CN(Cc1cc(F)cc(F)c1)C(=O)c1cnn([C@H]2CC[C@H](C(=O)O)CC2)c1C(F)(F)F)c1c(F)cc(F)cc1Cl` [Example 179, trans-4-(4-((2-(2-chloro-4,6-difluorophenyl)-2-oxoethyl)-((3,5-difluorophenyl)methyl)carbamoyl)-5-(trifluoromethyl)pyrazol-1-yl)cyclohexane-1-carboxylic acid], the IC50 is 52500 pM.

For the molecule `O=C(CN(C(=O)c1cnn([C@H]2CC[C@H](C(=O)O)CC2)c1C(F)(F)F)C1Cc2ccccc2C1)c1c(Cl)cncc1Cl` [Example 180, trans-4-(4-((2-(3,5-dichloropyridin-4-yl)-2-oxoethyl)-(2,3-dihydro-1H-inden-2-yl)carbamoyl)-5-(trifluoromethyl)pyrazol-1-yl)cyclohexane-1-carboxylic acid], the IC50 is 112000 pM.

As to `O=C(CN(C(=O)c1cnn([C@H]2CC[C@H](C(=O)O)CC2)c1C(F)(F)F)C1CCOCC1)c1c(Cl)cncc1Cl` [Example 181, trans-4-(4-((2-(3,5-dichloropyridin-4-yl)-2-oxoethyl)-(oxan-4-yl)carbamoyl)-5-(trifluoromethyl)pyrazol-1-yl)cyclohexane-1-carboxylic acid], the IC50 is > 1e+07 pM.

With `O=C(CN(C(=O)c1cnn([C@H]2CC[C@H](C(=O)O)CC2)c1C(F)(F)F)C1CCC2(CC1)CC2)c1c(Cl)cncc1Cl` [Example 182, trans-4-(4-((2-(3,5-dichloropyridin-4-yl)-2-oxoethyl)-spiro[2,5]octan-6-ylcarbamoyl)-5-(trifluoromethyl)pyrazol-1-yl)cyclohexane-1-carboxylic acid], the IC50 was 66100 pM.

Regarding `CC1(C)CC[C@H](N(CC(=O)c2c(Cl)cncc2Cl)C(=O)c2cnn([C@H]3CC[C@H](C(=O)O)CC3)c2C(F)(F)F)C1` [Example 183, trans-4-(4-((2-(3,5-dichloropyridin-4-yl)-2-oxoethyl)-((1S)-3,3-dimethylcyclopentyl)carbamoyl)-5-(trifluoromethyl)pyrazol-1-yl)cyclohexane-1-carboxylic acid], the IC50 was 174000 pM.

As to `CC1(C)CC[C@H](N(CC(=O)c2c(Cl)cncc2Cl)C(=O)c2cnn([C@H]3CC[C@H](C(=O)O)CC3)c2C(F)(F)F)C1` [Example 184, trans-4-(4-((2-(3,5-dichloropyridin-4-yl)-2-oxoethyl)-((1S)-3,3-dimethylcyclopentyl)carbamoyl)-5-(trifluoromethyl)pyrazol-1-yl)cyclohexane-1-carboxylic acid], the IC50 is 162000 pM.

With `O=C(CN(C(=O)c1cnn([C@H]2CC[C@H](C(=O)O)CC2)c1C(F)(F)F)C1CCCC1)c1c(Cl)cncc1Cl` [Example 185, trans-4-(4-(cyclopentyl-(2-(3,5-dichloropyridin-4-yl)-2-oxoethyl)carbamoyl)-5-(trifluoromethyl)pyrazol-1-yl)cyclohexane-1-carboxylic acid], the IC50 is 1.82e+06 pM.

Take `CC(C)(C)CN(CC(=O)c1c(Cl)cncc1Cl)C(=O)c1cnn([C@H]2CC[C@](C)(C(=O)O)CC2)c1C(F)(F)F` [Example 186, trans-4-(4-((2-(3,5-dichloropyridin-4-yl)-2-oxoethyl)-(2,2-dimethylpropyl)carbamoyl)-5-(trifluoromethyl)pyrazol-1-yl)-1-methylcyclohexane-1-carboxylic acid]: the IC50 is 26900 pM.

Take `CC(C1CCCC1)N(CC(=O)c1c(Cl)cncc1Cl)C(=O)c1cnn([C@H]2CC[C@H](C(=O)O)CC2)c1C(F)(F)F` (stereo partly drawn) [Example 187, trans-4-(4-(1-cyclopentylethyl-(2-(3,5-dichloropyridin-4-yl)-2-oxoethyl)carbamoyl)-5-(trifluoromethyl)pyrazol-1-yl)cyclohexane-1-carboxylic acid]: the IC50 is 224000 pM.

Turning to `COc1cncc(Cl)c1C(=O)CN(Cc1ccc(F)cc1)C(=O)c1cnn([C@H]2CC[C@H](C(=O)O)CC2)c1C(F)(F)F` [Example 188, trans-4-(4-((2-(3-chloro-5-methoxypyridin-4-yl)-2-oxoethyl)-((4-fluorophenyl)methyl)carbamoyl)-5-(trifluoromethyl)pyrazol-1-yl)cyclohexane-1-carboxylic acid], the IC50 was 275000 pM.

For the molecule `CC1(C)CCC(N(CC(=O)c2c(Cl)cc(Cl)cc2Cl)C(=O)c2cnn([C@H]3CC[C@H](C(=O)O)CC3)c2C(F)(F)F)CC1` [Example 189, trans-4-(4-((4,4-dimethylcyclohexyl)-(2-oxo-2-(2,4,6-trichlorophenyl)ethyl)carbamoyl)-5-(trifluoromethyl)pyrazol-1-yl)cyclohexane-1-carboxylic acid], the IC50 was 30200 pM.

Regarding `CC1(C)CCC(N(CC(=O)c2c(Cl)cc(F)cc2Cl)C(=O)c2cnn([C@H]3CC[C@](C)(C(=O)O)CC3)c2C(F)(F)F)CC1` [Example 190, trans-4-(4-((2-(2,6-dichloro-4-fluorophenyl)-2-oxoethyl)-(4,4-dimethylcyclohexyl)carbamoyl)-5-(trifluoromethyl)pyrazol-1-yl)-1-methylcyclohexane-1-carboxylic acid], the IC50 was 8320 pM.

With `CC1(C)CCC(N(CC(=O)c2c(Cl)cc(Cl)cc2Cl)C(=O)c2cnn([C@H]3CC[C@](C)(C(=O)O)CC3)c2C(F)(F)F)CC1` [Example 191, trans-4-(4-((4,4-dimethylcyclohexyl)-(2-oxo-2-(2,4,6-trichlorophenyl)ethyl)carbamoyl)-5-(trifluoromethyl)pyrazol-1-yl)-1-methylcyclohexane-1-carboxylic acid], the IC50 is 8910 pM.

Take `CC12CCC(CN(CC(=O)c3c(Cl)cncc3Cl)C(=O)c3cnn([C@H]4CC[C@H](C(=O)O)CC4)c3C(F)(F)F)(CC1)C2` [Example 192, trans-4-(4-((2-(3,5-dichloropyridin-4-yl)-2-oxoethyl)-((1-methyl-4-bicyclo[2.2.1]heptanyl)methyl)carbamoyl)-5-(trifluoromethyl)pyrazol-1-yl)cyclohexane-1-carboxylic acid]: the IC50 was 11700 pM.

Turning to `CC12CCC(CN(CC(=O)c3c(Cl)cc(F)cc3Cl)C(=O)c3cnn([C@H]4CC[C@H](C(=O)O)CC4)c3C(F)(F)F)(CC1)C2` [Example 193, trans-4-(4-((2-(2,6-dichloro-4-fluorophenyl)-2-oxoethyl)-((1-methyl-4-bicycio[2.2.1]heptanyl)methyl)carbamoyl)-5-(trifluoromethyl)pyrazol-1-yl)cyclohexane-1-carboxylic acid], the IC50 was 6460 pM.
